Reference: ChEMBL document CHEMBL1149012, “Effects of phenolic constituents from the mulberry tree on arachidonate metabolism in rat platelets” (J Nat Prod, 1986)
The source made the active and inactive calls. No cut-off for these calls is given here.

Columns and labels:
[1] = test system: Platelet; experiment: Inhibition of 12-hydroxy-5,8,10,14-eicosatetraenoic acid formation in Wistar King platelets at 0.1 mM; type: functional; settings: Rattus norvegicus, values are per cent of control
[2] = test system: Platelet; experiment: Stimulation of 12-hydroxy-5,8,10,14-eicosatetraenoic acid formation in Wistar King platelets at 0.1 mM; type: functional, cell-based; settings: Rattus norvegicus
[3] = test system: Platelet; experiment: Inhibition of 12-hydroxy-5,8,10-heptadecatrienoic acid formation in Wistar King platelets; type: functional, cell-based; settings: Rattus norvegicus
[4] = test system: Platelet; experiment: Inhibition of 12-hydroxy-5,8,10,14-eicosatetraenoic acid formation in Wistar King platelets at 1 mM; type: functional; settings: Rattus norvegicus
[5] = test system: Platelet; experiment: Inhibition of thromboxane B2 formation in Wistar King platelets; type: functional, cell-based; settings: Rattus norvegicus
[6] = test system: Platelet; experiment: Inhibition of 12-hydroxy-5,8,10,14-eicosatetraenoic acid formation in Wistar King platelets; type: functional, cell-based; settings: Rattus norvegicus
[7] = test system: Platelet; experiment: Inhibition of thromboxane B2 formation in Wistar King platelets at 1 mM; type: functional; settings: Rattus norvegicus
[8] = test system: Platelet; experiment: Inhibition of 12-hydroxy-5,8,10-heptadecatrienoic acid formation in Wistar King platelets at 1 mM; type: functional; settings: Rattus norvegicus
[9] = test system: Platelet; experiment: Stimulation of 12-hydroxy-5,8,10,14-eicosatetraenoic acid formation in Wistar King platelets at 10 uM; type: functional, cell-based; settings: Rattus norvegicus
[10] = test system: Platelet; experiment: Stimulation of 12-hydroxy-5,8,10,14-eicosatetraenoic acid formation in Wistar King platelets at 1 mM; type: functional, cell-based; settings: Rattus norvegicus
[11] = test system: Platelet; experiment: Stimulation of 12-hydroxy-5,8,10,14-eicosatetraenoic acid formation in Wistar King platelets; type: functional, cell-based; settings: Rattus norvegicus

IC50 [3]	IC50 [5]	Structure (SMILES)	inhibition at 1000 µM [4]	Activity [9]	Activity [10]	Activity [11]	further results
36.3 µM	50.7 µM	CC1=C[C@H](c2c(O)cc(-c3cc4ccc(O)cc4o3)cc2O)[C@@H](C(=O)c2ccc(O)cc2O)[C@H](c2ccc(O)cc2O)C1 [MULBERROFURAN J]	35.5%	–	–	–	residual activity at 100 µM [1]: 194%; Activity [2]: Active; IC50 [6]: 823 µM
–	–	CC(C)=CCc1c(-c2ccc(O)cc2O)oc2c([C@H]3Oc4cc(O)c5c(=O)c(CC=C(C)C)c(-c6ccc(O)cc6O)oc5c4[C@@H]4C=C(C)CC(C)(C)[C@H]34)c(O)cc(O)c2c1=O [KUMANON M]	68%	–	–	–	inhibition at 1000 µM [7]: 87.3%; inhibition at 1000 µM [8]: 81.5%
–	–	OC[C@H]1O[C@@H](Oc2cc(O)cc(/C=C/c3ccc(O[C@@H]4O[C@H](CO)[C@@H](O)[C@H](O)[C@H]4O)cc3O)c2)[C@H](O)[C@@H](O)[C@@H]1O	–	–	–	–	Activity [3]: inactive; Activity [5]: inactive; Activity [6]: inactive
10.7 µM	34.7 µM	CC1=C[C@H]2c3c(O)cc(-c4cc5ccc(O)cc5o4)cc3O[C@@]3(c4ccc(O)cc4O)Oc4cc(O)ccc4[C@H](C1)[C@@H]23 [MULBERROFURAN G]	–	–	–	–	IC50 [6]: 89 µM
112 µM	180 µM	CC(C)=CC[C@]12Oc3cc(O)c([C@H]4C=C(C)C[C@H](c5ccc(O)cc5O)[C@H]4C(=O)c4ccc(O)cc4O)c(O)c3C(=O)[C@@]1(O)Oc1cc(O)ccc12 [SANGGENON C]	–	Active	Active	Active	–
227 µM	355 µM	CC12C[C@@H](c3ccc(O)cc3O1)C13OC1(c1ccc(O)cc1O)Oc1cc(-c4cc5ccc(O)cc5o4)cc(O)c1C3C2=O (stereo not given in full) [MULBERROFURAN Q]	–	Active	Active	Active	–
43.3 µM	48.3 µM	CC(C)=CCC12Oc3cc(O)ccc3C1(O)Oc1cc(O)c([C@H]3C=C(C)C[C@@H](c4ccc(O)cc4O)[C@@H]3C(=O)c3ccc(O)cc3O)c(O)c1C2=O (stereo not given in full) [SANGGENON D]	51%	–	–	–	residual activity at 100 µM [1]: 256%; Activity [2]: Active
89.3 µM	132 µM	CC(C)=CCc1c(-c2ccc(O)cc2O)oc2c([C@H]3C=C(C)C[C@@H](c4ccc(O)cc4O)[C@@H]3C(=O)c3ccc(O)cc3O)c(O)cc(O)c2c1=O [KUMANON G]	–	Active	Active	Active	–

Structure (SMILES)	IC50 [3]	IC50 [5]	inhibition at 1000 µM [4]	Activity [9]	Activity [10]	Activity [11]	further results
CC(C)=CCc1c(O)ccc(C(=O)[C@@H]2[C@@H](c3c(O)cc(O)c4c(=O)c(CC=C(C)C)c(-c5ccc(O)cc5O)oc34)C=C(C)C[C@H]2c2ccc(O)cc2O)c1O [KUMANON H]	24 µM	75.7 µM	–	Active	Active	Active	–
